“Also recorded” adds a separate entry of the source. Read-outs that look alike come from different tables or passages of the source.

Data on 8 substances can be found in patent publication US20250340939A1 (priority 2021, published 2025).

What all share (format): binding
One data set has as its system S-gene RNA (SARS-CoV2). Particulars: for dependence of thermophoretic signal on S-gene RNA concentration / direction of thermophoretic flux: in the presence of 100 μM Dox; for dependence of thermophoretic/fluorescent signal on S-gene RNA concentration: no intercalating agent, red wavelength acquisition mode; for direction of thermophoretic flux: increasing S-gene; for ΔFnorm (signal response): FIG. 37.

A further data set concerns 18S rRNA (human). As to the kind of experiment: MST of probe hybridized with human RNA extracted from HEK 293T cells. From the text:
(§1) RNA was extracted from a sample, and after extraction, the RNA pellet was solubilized and hybridized with a specific fluorescently labeled DNA probe in a hybridization solution (as schematically depicted in FIG. 1). After hybridization, the hybridized sample was loaded into an MST capillary and inserted into a Monolith™ MST instrument (NanoTemper Technologies GmbH, Germany). This instrument included a blue mode (493 nm excitation, […]) and red mode ([…], 670 nm emission) for detection, and an I.R laser (1475 nm+/−15 nm) for heating. The intensities for both fluorescence detection (LED) and IR laser are adjustable, in a range of 0%-100%, wherein the temperature gradient generated has a temperature difference of up to about 2-8° C. Thermophoretic force was induced by infrared laser after 1 second, and maintained for 2 seconds, for a total of a 3 second measurement window (measurement time may optionally be further reduced to 2 seconds using current available MST instruments).
For RNA titration measurements, the extracted RNA solution was diluted to X2 and a serial dilution was prepared in water. Hybridization solutions were prepared as described herein, were X1 solution consisted of SSC buffer X1, 0.05% TWEEN™ 20 surfactant, and 1% formamide unless indicated otherwise. Fluorescently labeled probes were diluted from a 100 μM stock to 1:2400 in hybridization solution X2, denatured for 5 minutes at 100° C. and then incubated on ice for 5 minutes. […]
As depicted in FIG. 3, fluorescent signals were quantified in the 1 second before application of a temperature gradient (Fcold) and between 1 and 2 seconds after application of the temperature gradient (Fhot). […]
As the probes are tagged with different florescent dyes, 18S^ATTO488 can be used as a control for the RNA extraction process. […] The signals of 18S^ATTO488 were measured using a blue wavelength acquisition mode and S^Cy5 using a red wavelength acquisition mode. […]

The next data set relates to 16S rRNA (E. coli). Put plainly: MST of Cy5 probes hybridized with total bacterial RNA. Particulars: 100 μM Dox, red mode. As for the experimental part:
For bacterial RNA extraction, DH5α E. coli cells transfected with pcDNA3.1+ plasmid were grown overnight in LB medium containing 100 μg/ml ampicillin. The concentration of bacterial cells was determined according to OD at 600 nm, and ˜7·10^8 cells were taken for RNA extraction. 1 volume of bacterial culture was mixed with 2 volumes of RNAprotect® Bacteria Reagent (QIAGEN), vortexed for 5 seconds and incubated for 5 minutes at room temperature. The sample was then centrifuged for 10 minutes at 5,000×g at room temperature. After discarding supernatant, the pellet was resuspended in 100 μl TE buffer (10 mM Tris-HCl, 1 mM EDTA, pH 8) containing 1 mg/ml lysozyme. The samples were vortexed for 5 seconds, and then incubated at room temperature for 10 minutes with vortexing every 2 minutes. 1 ml TRIzol™ reagent was added to the sample. The sample was incubated at room temperature for 5 minutes, and then RNA extraction was performed as described hereinabove.
as §1
For RNA titration measurements, the extracted RNA solution was diluted to X2 and a serial dilution was prepared in water. Hybridization solutions were prepared as described herein, were X1 solution consisted of SSC buffer X1, 0.05% TWEEN™ 20 surfactant, and 1% formamide unless indicated otherwise. Fluorescently labeled probes were diluted from a 100 μM stock to 1:2400 in hybridization solution X2, denatured for 5 minutes at 100° C. and then incubated on ice for 5 minutes. If a mixture of uniformly labeled probes was prepared, the probes were diluted to a 1:1200 dilution in water and then diluted to 1:2400 with hybridization solution X4 (1:1/number of probes) to create equal molarity of the fluorescent dye. The probe solution was combined with the titration series in a 1:1 (v/v) ratio (10 μL total volume) and allowed to hybridize at a defined temperature for a given time as described. If post-hybridization with intercalating agents (ICA), doxorubicin or Midori™ Green, was performed, the samples were combined with ICA X5 solution 4:1 (v:v) ratio, 8 μL and 2 μL respectively. For cell based measurements, after extraction, the RNA pellet was solubilized and hybridized with a specific fluorescently labeled DNA probe in a hybridization solution (as schematically depicted in FIG. 1).
In order to determine the optimal hybridization temperature, one of the designed probes (16S1^Cy5) was incubated with increasing concentrations of bacterial RNA at different temperatures for 10 minutes. MST measurements were then performed using the red wavelength acquisition mode.
In order to assess the effect of human RNA presence and Dox post-hybridization on signal response, 16S1^Cy5 was incubated with increasing concentrations of bacterial or human total RNA at 71° C. for 2 hours. Equal amounts were then taken for post-hybridization incubation with Dox or hybridization buffer as a control. […]

The next data set has as its system S-HA gene. Put plainly: MST of probes with artificial S-HA gene RNA (target length effect).
The next data set has as its system HA gene (H1N1 influenza).
A further data set relates to control RNA. As to the kind of experiment: MST of probes incubated with control RNA (specificity). Particulars: in the presence of 100 μM Dox; red mode.

Turning to “SN^Cy5: Cy5-tagged 22 nucleotide "non-binding" DNA probe (SEQ ID NO: 4), negative control (DNA CACCATTAGTGGGTTGGAAACC; DNA, backbone not given here; Cy5 dye label)”, the “dependence of thermophoretic signal on S-gene RNA concentration” value in the data set with S-gene RNA (SARS-CoV2) (red mode) was “not affected by RNA concentration”. Further, in the data set with S-gene RNA (SARS-CoV2), the “dependence of thermophoretic/fluorescent signal on S-gene RNA concentration” value is on record as “exhibits no change in MST signal; also recorded: no dependence; also recorded: did not generated dose-dependent signals”.
Take “18S^ATTO488: probe with SEQ ID NO: 6 tagged with blue fluorescent dye ATTO 488, targets human 18S rRNA (DNA AGGGGCTGACCGGGTTGGTTTTGATCTGATAAATGCACGCATCCCC; ATTO 488 label; misc_feature 1..46 ATTO488 labeled; DNA sequence complementary to nucleotides 205-250 of SEQ ID NO: 5)”: the “selectivity of signal response to target RNA” value with 18S rRNA (human) (100 ng/μl HEK 293T RNA vs 400 ng/μl S-gene, 400 ng/μl control RNA or no RNA, blue mode) is “selective signal responses to their target RNA”. Also, the “dependence of fluorescent signal on complementary RNA dose” value in the data set on 18S rRNA (human) (RNA extracted from HEK 293T cells, blue mode) is “dependent on the dose of complementary RNA”. Moreover, the “concomitant detection of 18S rRNA in human extracted RNA” value in the data set with 18S rRNA (human) (mixed with S^Cy5, hybridization at 42° C. for 30 minutes) was “effective and quantitative”.
For the substance “16S4^Cy5: Cy5-labeled 36 nucleotide DNA probe (SEQ ID NO: 12) complementary to E. coli 16S rRNA (DNA GGCAGTCTCCTTTGAGTTCCCGGCCGGACCGCTGGC; DNA, backbone not given here; Cy5 dye label)”, the “direction of thermophoretic migration (MST curves)” value (from here on “direction … (MST curves)”) with 16S rRNA (E. coli) was “A similar effect was observed”.
Turning to “16S2^Cy5: Cy5-labeled 44 nucleotide DNA probe (SEQ ID NO: 10) complementary to E. coli 16S rRNA (DNA GCGGCCGTACTCCCCAGGCGGTCGACTTAACGCGTTAGCTCCGG; DNA, backbone not given here; Cy5 dye label)”, the “direction … (MST curves)” value in the data set with 16S rRNA (E. coli) is given as “migrated towards the heating zone both in the presence of bacterial RNA”.
Regarding “16S7^Cy5: Cy5-labeled 45 nucleotide DNA probe (SEQ ID NO: 15) complementary to E. coli 16S rRNA (DNA CCCCCTCCATCAGGCAGTTTCCCAGACATTACTCACCCGTCCGCC; DNA, backbone not given here; Cy5 dye label)”, in the data set on 16S rRNA (E. coli), the “direction … (MST curves)” value is “migrated towards the heating zone in the presence of increasing concentrations of bacterial RNA, but away from the heating zone in the absence of bacterial RNA”. In addition, in the data set on 16S rRNA (E. coli) (single probes, 10 minutes hybridization), the “sensitivity to target RNA concentration (linear regression slope)” value is on record as “significantly more sensitive to target RNA concentration than the other tested probes”.
As to “SE^Cy5: Cy5-tagged 22 nucleotide DNA probe (SEQ ID NO: 3) designed to bind at the edge of the S-gene (DNA CAATATCACCAAGGCAATCACC; DNA, backbone not given here; Cy5 dye label)”, the “direction of thermophoretic flux” value in the data set with S-gene RNA (SARS-CoV2) (red mode) is listed as “directed away from the heating zone”. Besides, in the data set on S-gene RNA (SARS-CoV2) (no Dox), the “ΔFnorm (signal response)” value was 54.41 ‰. The “dependence of thermophoretic/fluorescent signal on S-gene RNA concentration” value with S-gene RNA (SARS-CoV2) is “exhibited a thermophoretic signal dependent on S-gene RNA concentration”. For the same substance, the “maximum signal response, S-gene vs S-HA gene” value in the data set with S-HA gene (red mode, FIG. 55) is listed as “considerably stronger in the presence of S-gene than in the presence of S-HA”.
Regarding “HA^ATTO488: DNA having SEQ ID NO: 8 tagged with blue fluorescent dye ATTO 488, targets H1N1 HA-gene (DNA TGAAGCCGGCAATGGCCCCGAATAGGCCTCTAG; ATTO 488 label; misc_feature 1..33 DNA sequence complementary to nucleotides 567-599 of SEQ ID NO: 7 (nucleotides 1048-1080 of Influenza A H1N1 HA gene; ATTO488 labeled)”, the “dependence of signal on S-gene concentration (off-target)” value with S-gene RNA (SARS-CoV2) (SSC X1, 10% (v/v) formamide, blue mode) is recorded as “not on the concentration of S-gene or control RNA”. The “effect of higher saline sodium citrate buffer concentration on detection sensitivity” value in the data set on HA gene (H1N1 influenza) (SSC X1, X2, X4, blue mode) is given as “increased detection sensitivity”. The “dependence of signal on HA-gene concentration” value in the data set with HA gene (H1N1 influenza) (blue mode) is “dose-dependent signal; also recorded: dependent on the concentration of HA-gene”.
“S^Cy5: 33 base DNA (SEQ ID NO: 2) tagged with red dye Cy5, binds the middle of SARS-CoV2 S-gene RNA (DNA GGATTGACTAGCTACACTACGTGCCCGCCGAGG; DNA, backbone not given here; Cy5 dye label)”: in the data set with S-gene RNA (SARS-CoV2), the “average maximum ΔFnorm” value is reported as 547.1 ‰, the “selectivity of signal response to target RNA” value is “selective signal responses to their target RNA” and the “dependence of thermophoretic/fluorescent signal on S-gene RNA concentration” value is on record as “dependent on the dose of complementary RNA; also recorded: exhibited a thermophoretic signal dependent on S-gene RNA concentration”. In the data set with S-gene RNA (SARS-CoV2) (red mode), the “direction of thermophoretic flux” value is listed as “towards the heating zone” and the “dependence of thermophoretic signal on S-gene RNA concentration” value is listed as “altered by S-gene RNA in a dose-dependent manner”. Also, the “Z′-factor” value in the data set with S-gene RNA (SARS-CoV2) (maximum signal response with S-gene compared to no RNA control) was 0.85. In addition, the “concomitant detection of S-gene in presence of human extracted RNA” value in the data set on S-gene RNA (SARS-CoV2) (mixed with 18S^ATTO488, hybridization at 42° C. for 30 minutes) was “effective and quantitative”. Besides, in the data set with S-gene RNA (SARS-CoV2) (no Dox), the “ΔFnorm (signal response)” value is listed as 110.63 ‰. Also, in the data set with S-gene RNA (SARS-CoV2) (no Dox, red mode), the “average maximum ΔFnorm” value is reported as 116.5 ‰. Besides, in the data set on HA gene (H1N1 influenza) (red mode, data not shown), the “signal response to HA-gene (off-target)” value is “no response in signal was observed”. Besides, in the data set on control RNA, the “effect of control RNA on probe signal” value is “no effect”. For the same substance, in the data set with S-HA gene, the “sensitivity (slope at low RNA levels), S-HA-gene vs S-gene” value is given as “considerably greater sensitivity than towards S-gene”. Moreover, in the data set with S-HA gene (red mode, FIG. 55), the “affinity towards S-HA gene compared with S-gene” value is “higher affinity towards S-HA gene than to S-gene” and the “maximum signal response, S-gene vs S-HA gene” value is given as “did not differ”.
